Measured values as given in US20260327250A1, “3-ETHYLAMINO-INDOLE DIMERS AS SEROTONERGIC AGENTS USEFUL FOR THE TREATMENT OF DISORDERS RELATED THERETO” (MINDSET PHARMA INC., priority 2022, published 2026).
Where a name gives a salt, the structure may show the parent alone.

Tests used:
[1] = molecular target: T1, human 5-hydroxytryptamine receptor 1A (5-HT1A) (Homo sapiens, UniProt P08908); assay: Human 5-HT1A functional FLIPR assay (agonist mode); format: cell-based; settings: footnote: Curve fitting with activation (%) @ 10 mM with RFU
T1 construct: expressed in transfected cells; host or cells: HTR1A&Ga15-CHO
T1 sequence (P08908 1-422): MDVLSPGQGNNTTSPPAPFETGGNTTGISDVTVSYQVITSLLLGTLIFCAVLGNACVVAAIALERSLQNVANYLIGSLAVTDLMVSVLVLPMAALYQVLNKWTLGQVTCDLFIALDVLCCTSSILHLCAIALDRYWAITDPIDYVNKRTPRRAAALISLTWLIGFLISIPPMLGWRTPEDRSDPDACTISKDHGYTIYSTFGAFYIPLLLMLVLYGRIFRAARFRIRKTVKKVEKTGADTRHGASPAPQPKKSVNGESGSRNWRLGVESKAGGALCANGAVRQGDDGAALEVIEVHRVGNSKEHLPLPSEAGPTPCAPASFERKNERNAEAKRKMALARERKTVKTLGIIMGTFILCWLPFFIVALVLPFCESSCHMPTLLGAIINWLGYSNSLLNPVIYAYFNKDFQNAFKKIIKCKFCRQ
Method: The potential excitatory effects of compounds targeting on 5-hydroxytryptamine receptor 1A under agonist mode was assessed.
HTR1A&Ga15-CHO cells were cultured in DMEM/F12 medium containing 10% dialyzed FBS, 1× penicillin-streptomycin and 600 μg/mL Hygromycin B. The cells were passaged about three times a week, maintained between […] confluence.
• 1. The cell culture medium (DMEM/F12 medium containing 10% dialyzed FBS, 1× penicillin-streptomycin and 600 μg/mL Hygromycin B), TrypLE™ Express and DPBS was warmed to R.T. in advance. • 2. The cell culture medium was removed from the flask. The cells were washed with DPBS. • 3. 1 mL TrypLE™ Express was added to the flask, mixed well by gentle shaking and then cells were incubated at 37° C. for a few minutes. • 4. The cells morphological change was checked under microscope, and the digestion stopped by adding 2 mL cell culture medium to the flask when most of cells turned to round. • 5. The cell suspension was transferred into a 15 mL centrifuge tube, and then centrifuged at 1,200 rpm for 5 minutes. • 6. The supernatant was removed. The cell pellet was resuspended with 2 mL cell culture medium. • 7. The cell density was counted using cell counter. Only cells with >85% viability were used for the assay. • 8. The cells were diluted to 4×10^5/mL with cell culture medium. • 9. 30 μL/well cell suspensions were added into a 384-well cell plate (The cell density was 12,000 cells/well). • 10. The cell plate was incubated overnight at 37° C., 5% (v/v) CO2. 3.3 Cell handling • 1. On the day of experiments, culture medium was removed from the cell plate. • 2. 10 μL of assay buffer (20 mM HEPES, in 1× HBSS, pH 7.4) was added to each well of the cell plate. • 3. 2× dye solution was prepared following the manufacture's instruction of the FLIPR® Calcium 6 assay kit: • i. The dye was diluted with assay buffer. • ii. Probenecid was added to the final concentration of 5 mM. • iii. Vigorously vortex for 1-2 minutes, and pH was adjusted to 7.4. • 4. 10 μL of 2× dye solution was added to each well of the cell plate. • 5. The cell plate was placed on plate shaker, followed by shaking at 600 rpm for 2 minutes. • 6. The plate at 37° C. was incubated for 2 hours followed by an additional 15-minute incubation at 25° C.
• 1. Serotonin was prepared to the concentration of 10 mM with DMSO, 3-folds serial dilutions were performed with DMSO. • 2. The test compounds were prepared to the concentration of 10 mM with DMSO, 3-folds serial dilutions were performed with DMSO. • 3. The compounds were added to a 384-well compound source plate. • 4. 90 nL/well of serial diluted compounds were transferred from source plate to a 384-well compound plate by using an Echo. • 5. 30 μL/well of assay buffer was added to the compound plate. • 6. The plate-on-plate shaker was mixed for 2 minutes.
• 1. After the cells had incubated with dye solution, the cell plate, compound plate containing 3×compounds and FLIPR tips were placed into FLIPR. • 2. 10 μL of 3×compounds were transferred from the compound plate to the cell plate by FLIPR. • 3. The plate was read for 160 sec with 1 sec interval to obtain the data of agonist mode.
• 1. The normalized fluorescence reading (RFU) was calculated as shown below, wherein Fmax and Fmin stand for maximum and minimum of calcium signal during defined time window:
2. EC50 was calculated by fitting RFU against log of compound concentrations with Hill equation using XLfit.

in vitro = settings: mouse, microsomes
Method: The concentrations of parent compounds in reaction systems were evaluated by LC-MS/MS for estimating the stability in pooled human, male rat and male mouse liver microsomes. The in vitro intrinsic clearances of test compounds were determined as well. Protocol
A master solution in the “Incubation Plate” containing phosphate buffer, ultra-pure H2O, MgCl2 solution and liver microsomes was made according to Table 6. The mixture was pre-warmed at 37° C. water bath for 5 minutes.
The reaction was started with the addition of 4 μL of 200 μM exemplary test compounds of the application or control compounds to each master solution to get the final concentration of 2 μM. This study was performed in duplicate.
Aliquots of 50 μL were taken from the reaction solution at 0, 15, 30, 45 and 60 minutes. The reaction solutions were stopped by the addition of 4 volumes of cold methanol with IS (100 nM alprazolam, 200 nM imipramine, 200 nM labetalol and 2 μM ketoprofen). Samples were centrifuged at 3,220 g for 40 minutes. Aliquot of 90 μL of the supernatant was mixed with 90 μL of ultra-pure H2O and then was used for LC-MS/MS analysis.
All calculations were carried out using Microsoft Excel. Peak area ratios of test compound to internal standard (listed in the below table) were determined from extracted ion chromatograms.
All calculations were carried out using Microsoft Excel. Peak areas were determined from extracted ion chromatograms. The slope value, k, was determined by linear regression of the natural logarithm of the remaining percentage of the parent drug vs. incubation time curve.
The in vitro half-life (in vitro t½) was determined from the slope value:
Conversion of the in vitro t½ (min) into the in vitro intrinsic clearance (in vitro CLint, in μL/min/mg proteins) was done using the following equation (mean of duplicate determinations):

SMILES	RFU@10 μM [1] [RFU]	half-life at 2 µM (in vitro) [min]	microsomal CLint at 2 µM (in vitro) [µL/min/mg]	remaining at 1 h, 2 µM (in vitro) [%]
CC(C)N(CCc1c[nH]c2cccc(O)c12)C(C)C [Compound 7]	74	–	–	–
CN(C)CCc1c[nH]c2cccc(OC(=O)CCCC(=O)Oc3cccc4[nH]cc(CCN(C)C)c34)c12 [Compound I-24, Bis(3-(2-(dimethylamino)ethyl)-1H-indol-4-yl) glutarate]	169	< 4.51	> 307	0
CC(C)N(CCc1c[nH]c2cccc(OC(=O)CCCC(=O)Oc3cccc4[nH]cc(CCN(C(C)C)C(C)C)c34)c12)C(C)C [Compound I-37, Bis(3-(2-(diisopropylamino)ethyl)-1H-indol-4-yl) glutarate dihydrochloride]	62	< 4.51	> 307	0
CN(C)CCc1c[nH]c2cccc(O)c12 [Psilocin, 4-hydroxy-N,N-dimethyltryptamine, reference compound]	140	–	–	96.9
CN(C)CCc1c[nH]c2cccc(OP(=O)(O)O)c12 [Psilocybin]	143	–	–	–
